Measurements reported in ChEMBL document CHEMBL4321846, “Discovery of a Potent and Selective Oral Inhibitor of ERK1/2 (AZD0364) That Is Efficacious in Both Monotherapy and Combination Therapy in Models of Nonsmall Cell Lung Cancer (NSCLC)” (J Med Chem, 2019).
Blank lines part the entries; values can stand above or below the compound they belong to. Calls of active or inactive are those of the source. The rule behind the calls is not given here.

How the values were obtained:
[1] = biological target: T1, Mitogen-activated protein kinase; ERK1/ERK2 (Homo sapiens, UniProt P27361+P28482); experiment: Inhibition of ERK1/2 in human A375 cells assessed as inhibition of ERK phosphorylation after 2 hrs; type: cell-based
[2] = biological target: T2, Mitogen-activated protein kinase 1 (Homo sapiens, UniProt P28482); experiment: Inhibition of MEK U911-activated ERK2 (unknown origin) using ERKtide as substrate preincubated for 20 mins followed by substrate addition in presence of 1 mM ATP after 10 mins by rapidfire mass spectrometry analysis
T2 sequence (P28482 whole entry): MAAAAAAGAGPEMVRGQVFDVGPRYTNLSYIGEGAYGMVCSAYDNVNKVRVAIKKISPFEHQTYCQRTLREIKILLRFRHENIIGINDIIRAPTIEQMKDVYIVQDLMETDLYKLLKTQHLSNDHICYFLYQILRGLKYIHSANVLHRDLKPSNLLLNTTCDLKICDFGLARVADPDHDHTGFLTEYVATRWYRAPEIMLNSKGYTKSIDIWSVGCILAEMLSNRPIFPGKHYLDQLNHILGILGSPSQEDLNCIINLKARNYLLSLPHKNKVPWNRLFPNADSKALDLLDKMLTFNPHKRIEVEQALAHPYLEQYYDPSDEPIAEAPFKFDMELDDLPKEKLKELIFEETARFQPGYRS

[3] = biological target: T2, Mitogen-activated protein kinase 1; experiment: Inhibition of MEK U911-activated ERK2 (unknown origin) using ERKtide as substrate preincubated for 20 mins followed by substrate addition in presence of ATP at Km concentration after 20 mins by rapidfire mass spectrometry analysis
[4] = biological target: T1, Mitogen-activated protein kinase; ERK1/ERK2; experiment: Inhibition of ERK1/2 in human A375 cells assessed as inhibition of RSK phosphorylation after 2 hrs; type: cell-based
[5] = biological target: Voltage-gated inwardly rectifying potassium channel KCNH2 (Homo sapiens, UniProt Q12809)
Voltage-gated inwardly rectifying potassium channel KCNH2, sequence (Q12809 whole entry): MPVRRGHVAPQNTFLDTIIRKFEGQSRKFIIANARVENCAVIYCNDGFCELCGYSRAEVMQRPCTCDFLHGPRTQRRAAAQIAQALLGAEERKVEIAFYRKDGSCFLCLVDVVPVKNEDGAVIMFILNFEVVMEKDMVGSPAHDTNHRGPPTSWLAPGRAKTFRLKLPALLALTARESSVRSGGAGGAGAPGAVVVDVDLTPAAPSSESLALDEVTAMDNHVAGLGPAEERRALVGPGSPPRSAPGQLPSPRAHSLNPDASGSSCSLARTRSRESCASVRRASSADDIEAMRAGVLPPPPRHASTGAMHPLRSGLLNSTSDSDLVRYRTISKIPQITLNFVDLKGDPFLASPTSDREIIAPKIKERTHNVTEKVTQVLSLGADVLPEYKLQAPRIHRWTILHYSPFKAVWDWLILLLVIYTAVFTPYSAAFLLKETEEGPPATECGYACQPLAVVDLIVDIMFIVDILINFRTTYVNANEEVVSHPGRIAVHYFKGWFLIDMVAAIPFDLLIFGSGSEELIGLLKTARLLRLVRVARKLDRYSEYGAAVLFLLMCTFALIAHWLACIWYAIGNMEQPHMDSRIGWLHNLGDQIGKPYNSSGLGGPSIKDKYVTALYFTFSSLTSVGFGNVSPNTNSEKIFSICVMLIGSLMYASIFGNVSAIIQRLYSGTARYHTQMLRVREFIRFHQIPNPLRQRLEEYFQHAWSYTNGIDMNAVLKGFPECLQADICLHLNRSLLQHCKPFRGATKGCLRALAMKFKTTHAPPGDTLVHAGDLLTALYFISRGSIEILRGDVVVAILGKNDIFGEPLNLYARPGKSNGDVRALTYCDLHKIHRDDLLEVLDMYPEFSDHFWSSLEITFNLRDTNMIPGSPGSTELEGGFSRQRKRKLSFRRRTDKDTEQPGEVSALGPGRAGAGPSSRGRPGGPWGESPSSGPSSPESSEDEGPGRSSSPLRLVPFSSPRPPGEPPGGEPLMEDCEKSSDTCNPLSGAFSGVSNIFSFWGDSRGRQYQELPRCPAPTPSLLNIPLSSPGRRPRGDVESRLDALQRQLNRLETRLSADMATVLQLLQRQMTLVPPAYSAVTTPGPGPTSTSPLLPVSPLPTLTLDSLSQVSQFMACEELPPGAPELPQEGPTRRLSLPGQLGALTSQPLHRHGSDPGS

[6] = biological target: T2, Mitogen-activated protein kinase 1
[7] = biological target: T2, Mitogen-activated protein kinase 1; remark: listed apart in the source
[8] = biological target: T2, Mitogen-activated protein kinase 1; remark: listed apart in the source
[9] = biological target: T2, Mitogen-activated protein kinase 1; remark: listed apart in the source
[10] = biological target: T3, CDK2/Cyclin A1 (Homo sapiens) (UniProt P24941+P78396); experiment: Binding affinity to recombinant human full length N-terminal GST-tagged CDK2/Cyclin A1 expressed in baculovirus infected Sf9 cells at 1 uM relative to control
[11] = biological target: Dual specificity mitogen-activated protein kinase kinase 2 (Homo sapiens) (UniProt P36507); experiment: Inhibition of recombinant full length his-tagged human MEK2 expressed in baculovirus expression system at 1 uM relative to control
Dual specificity mitogen-activated protein kinase kinase 2 (Homo sapiens), sequence (P36507 whole entry): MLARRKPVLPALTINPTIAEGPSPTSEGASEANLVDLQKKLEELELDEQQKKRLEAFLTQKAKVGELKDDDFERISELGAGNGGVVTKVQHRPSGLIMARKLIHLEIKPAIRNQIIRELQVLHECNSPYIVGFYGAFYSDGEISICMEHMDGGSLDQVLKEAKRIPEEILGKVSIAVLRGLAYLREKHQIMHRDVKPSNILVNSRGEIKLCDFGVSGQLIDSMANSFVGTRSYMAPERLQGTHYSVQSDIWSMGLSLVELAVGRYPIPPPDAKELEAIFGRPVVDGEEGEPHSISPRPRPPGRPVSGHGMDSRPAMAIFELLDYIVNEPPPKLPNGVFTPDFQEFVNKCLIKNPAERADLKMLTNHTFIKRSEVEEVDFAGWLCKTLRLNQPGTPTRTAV

[12] = biological target: Dual specificity mitogen-activated protein kinase kinase 2 (Homo sapiens) (UniProt P36507); experiment: Inhibition of recombinant full length his-tagged human MEK2 expressed in baculovirus expression system at 1 uM by GST-tagged full length human inactive ERK2 expressed in baculovirus expression system coupled cascade assay relative to control
[13] = Volume of distribution at steady state in rat; type: ADME; conditions: in vivo, read-out: Vdss
[14] = Oral bioavailability in rat; type: ADME, organism-based; conditions: in vivo
[15] = biological target: T2, Mitogen-activated protein kinase 1; remark: listed apart in the source
[16] = test system: RAF proto-oncogene serine/threonine-protein kinase (Homo sapiens), P04049 [Y340D,Y341D]; experiment: Inhibition of recombinant human GST-tagged c-RAF1 Y340D/Y341D mutant catalytic domain expressed in baculovirus expression system at 1 uM relative to control
RAF proto-oncogene serine/threonine-protein kinase (Homo sapiens), P04049 [Y340D,Y341D], sequence (P04049 whole entry Y340D/Y341D, the tested form may be a part): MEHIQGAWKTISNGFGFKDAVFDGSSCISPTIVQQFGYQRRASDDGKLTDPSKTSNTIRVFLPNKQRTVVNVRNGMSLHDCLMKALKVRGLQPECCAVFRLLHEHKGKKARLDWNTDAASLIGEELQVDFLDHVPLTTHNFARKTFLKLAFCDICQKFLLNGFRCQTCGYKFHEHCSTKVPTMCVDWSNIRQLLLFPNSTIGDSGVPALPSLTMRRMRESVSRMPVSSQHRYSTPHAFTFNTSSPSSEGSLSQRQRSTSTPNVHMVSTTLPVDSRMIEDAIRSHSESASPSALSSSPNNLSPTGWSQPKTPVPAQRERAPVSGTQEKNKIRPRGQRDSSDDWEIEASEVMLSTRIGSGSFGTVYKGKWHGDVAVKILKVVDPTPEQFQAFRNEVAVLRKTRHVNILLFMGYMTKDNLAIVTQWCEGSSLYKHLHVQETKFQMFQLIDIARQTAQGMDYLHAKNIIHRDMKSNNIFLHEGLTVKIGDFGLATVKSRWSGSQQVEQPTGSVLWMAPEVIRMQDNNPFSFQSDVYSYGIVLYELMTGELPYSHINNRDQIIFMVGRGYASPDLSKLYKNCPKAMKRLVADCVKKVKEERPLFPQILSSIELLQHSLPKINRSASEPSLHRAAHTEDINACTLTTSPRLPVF

[17] = Fraction unbound in dog plasma; type: ADME, cell-free, Canis lupus familiaris
[18] = biological target: T3, CDK2/Cyclin A1 (Homo sapiens); experiment: Inhibition of recombinant human full length His-tagged CDK2/Cyclin A expressed in baculovirus expression system at 1 uM relative to control
[19] = biological target: Cyclin-dependent kinase 5/CDK5 activator 1 (Homo sapiens) (UniProt Q00535+Q15078); experiment: Inhibition of recombinant full length human GST/His-tagged CDK5/p25 expressed in baculovirus expression system at 1 uM relative to control
Cyclin-dependent kinase 5/CDK5 activator 1 (Homo sapiens), sequence (Q00535 whole entry): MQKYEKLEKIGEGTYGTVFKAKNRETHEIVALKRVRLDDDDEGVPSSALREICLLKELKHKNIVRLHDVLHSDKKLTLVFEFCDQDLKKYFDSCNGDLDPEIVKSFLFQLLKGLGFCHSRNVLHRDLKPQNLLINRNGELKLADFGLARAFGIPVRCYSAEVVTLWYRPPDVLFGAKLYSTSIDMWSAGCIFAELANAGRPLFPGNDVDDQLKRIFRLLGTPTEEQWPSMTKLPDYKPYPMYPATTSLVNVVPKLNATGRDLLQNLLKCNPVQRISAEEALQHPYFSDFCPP
Cyclin-dependent kinase 5/CDK5 activator 1 (Homo sapiens), sequence (Q15078 99-307 partner limits assumed): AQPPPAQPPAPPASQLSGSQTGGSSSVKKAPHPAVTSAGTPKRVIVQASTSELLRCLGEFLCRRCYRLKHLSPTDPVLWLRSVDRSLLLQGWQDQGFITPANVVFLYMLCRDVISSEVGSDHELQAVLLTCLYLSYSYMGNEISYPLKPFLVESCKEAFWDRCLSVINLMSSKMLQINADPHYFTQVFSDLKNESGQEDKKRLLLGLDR

[20] = biological target: Serine/threonine-protein kinase B-raf (Homo sapiens) (UniProt P15056); experiment: Inhibition of recombinant full length GST-tagged human BRAF1 expressed in baculovirus expression system at 1 uM relative to control
A549 = experiment: Antitumor activity against human A549 cells harboring KRAS […] mutant xenografted in athymic Nude-Foxn1nu mouse assessed as tumor regression at 25 mg/kg, po bid adminstered for 21 days and measured twice per week in presence of selumetinib by caliper method relative to control; type: functional
[21] = biological target: Dual specificity mitogen-activated protein kinase kinase 1 (Homo sapiens) (UniProt Q02750); experiment: Inhibition of recombinant full length His-tagged human MEK1 expressed in baculovirus expression system at > 10 uM
Dual specificity mitogen-activated protein kinase kinase 1 (Homo sapiens), sequence (Q02750 whole entry, the tested form may be a part): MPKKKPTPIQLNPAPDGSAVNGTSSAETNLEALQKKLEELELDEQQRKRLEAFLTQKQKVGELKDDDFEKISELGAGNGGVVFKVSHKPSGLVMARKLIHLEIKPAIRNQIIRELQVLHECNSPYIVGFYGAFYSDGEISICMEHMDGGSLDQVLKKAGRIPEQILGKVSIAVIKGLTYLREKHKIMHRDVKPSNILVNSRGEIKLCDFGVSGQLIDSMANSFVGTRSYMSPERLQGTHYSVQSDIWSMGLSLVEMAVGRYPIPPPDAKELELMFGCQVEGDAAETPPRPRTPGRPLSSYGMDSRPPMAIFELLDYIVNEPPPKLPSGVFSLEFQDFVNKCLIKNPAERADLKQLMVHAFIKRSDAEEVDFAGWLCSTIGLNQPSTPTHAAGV

Calu-6 [22] = experiment: Antitumor activity against human Calu6 cells expressing KRAS Q61K mutant xenografted in athymic Nude-Foxn1nu mouse assessed as tumor growth inhibition at 15 mg/kg, po qd adminstered for 21 days and measured twice per week by caliper method relative to control; type: functional; conditions: Calu-6, po, 504 h, read-out: TGI
Calu-6 [23] = experiment: Antitumor activity against human Calu6 cells expressing KRAS Q61K mutant xenografted in athymic Nude-Foxn1nu mouse assessed as tumor regression at 50 mg/kg, po qd adminstered for 21 days and measured twice per week by caliper method relative to control; type: functional
Mus musculus [24] = experiment: Reduction in phosphorylated RSK level in athymic Nude-Foxn1nu mouse xenografted with human Calu6 cells expressing KRAS Q61K mutant at 25 mg/kg, po qd adminstered for 21 days and measured after 6 hrs post dose by Western blot analysis relative to control; type: functional; conditions: Calu-6, po
[25] = Volume of distribution at steady state in dog; type: ADME, Canis lupus familiaris; conditions: in vivo, read-out: Vdss
[26] = biological target: Mitogen-activated protein kinase 15 (Homo sapiens) (UniProt Q8TD08); experiment: Inhibition of recombinant human N-terminal 4xFLAG-tagged/C-terminal His8-fused ERK7 N-terminal domain (M1 to R354 residues) expressed in Sf9 insect cells at 1 uM relative to control
Mitogen-activated protein kinase 15 (Homo sapiens), sequence (Q8TD08 whole entry, the tested form may be a part): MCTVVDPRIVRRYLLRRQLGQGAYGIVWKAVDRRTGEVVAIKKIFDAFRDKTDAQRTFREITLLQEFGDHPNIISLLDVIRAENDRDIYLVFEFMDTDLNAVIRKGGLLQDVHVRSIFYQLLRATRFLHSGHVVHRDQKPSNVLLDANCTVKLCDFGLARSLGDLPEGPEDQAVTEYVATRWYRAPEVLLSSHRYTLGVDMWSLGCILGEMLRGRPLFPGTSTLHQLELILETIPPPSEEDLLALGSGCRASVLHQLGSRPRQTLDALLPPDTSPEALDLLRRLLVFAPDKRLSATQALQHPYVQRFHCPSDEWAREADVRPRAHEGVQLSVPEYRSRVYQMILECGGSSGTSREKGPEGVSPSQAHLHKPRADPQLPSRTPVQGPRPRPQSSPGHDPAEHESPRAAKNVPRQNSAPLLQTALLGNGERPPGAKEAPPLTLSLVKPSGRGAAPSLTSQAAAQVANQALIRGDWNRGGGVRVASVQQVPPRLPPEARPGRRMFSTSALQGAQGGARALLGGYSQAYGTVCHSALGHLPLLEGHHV

[27] = biological target: NUAK family SNF1-like kinase 1 (Homo sapiens) (UniProt O60285); experiment: Inhibition of recombinant full length human His-tagged ARK5 expressed in baculovirus expression system at 1 uM relative to control
[28] = biological target: T2, Mitogen-activated protein kinase 1; remark: listed apart in the source
[29] = test system: RAF proto-oncogene serine/threonine-protein kinase (Homo sapiens), P04049 [Y340D,Y341D]; experiment: Inhibition of recombinant human GST-tagged c-RAF1 Y340D/Y341D mutant catalytic domain expressed in baculovirus expression system at 1 uM by GST-tagged full length human inactive ERK2 expressed in baculovirus expression system coupled cascade assay relative to control
Calu-6 [30] = experiment: Antiproliferative activity against human Calu6 cells expressing KRAS Q61K mutant assessed as growth inhibition; type: functional
[31] = Half life in po dosed rat; type: ADME, organism-based; conditions: in vivo
[32] = Fraction unbound in human plasma; type: ADME, cell-free
[33] = biological target: T4, Cyclin-dependent kinase 5/CDK5 activator 1 (Homo sapiens, UniProt Q00535); experiment: Inhibition of recombinant full length human GST/His-tagged CDK5/p25 expressed in baculovirus expression system
T4 sequence (Q00535 whole entry): as the sequence (Q00535 whole entry) above
T4 sequence (Q15078 whole entry, further chain): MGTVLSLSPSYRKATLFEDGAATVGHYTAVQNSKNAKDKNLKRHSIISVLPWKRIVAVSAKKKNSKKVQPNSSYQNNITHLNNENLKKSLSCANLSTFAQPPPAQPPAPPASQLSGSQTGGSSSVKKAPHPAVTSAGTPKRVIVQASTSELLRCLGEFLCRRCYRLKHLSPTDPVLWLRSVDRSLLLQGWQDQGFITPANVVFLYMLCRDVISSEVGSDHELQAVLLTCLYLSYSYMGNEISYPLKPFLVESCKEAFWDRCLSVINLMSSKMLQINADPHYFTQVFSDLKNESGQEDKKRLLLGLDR

[34] = biological target: T2, Mitogen-activated protein kinase 1; experiment: Binding affinity to MEK-activated phosphorylated biotinylated ERK2 (unknown origin) by SPR analysis
[35] = biological target: T2, Mitogen-activated protein kinase 1; experiment: Binding affinity to non-phosphorylated biotinylated ERK2 (unknown origin) by SPR analysis
Mus musculus [36] = experiment: Reduction in phosphorylated RSK level in athymic Nude-Foxn1nu mouse xenografted with human Calu6 cells expressing KRAS Q61K mutant at 25 mg/kg, po qd adminstered for 21 days and measured after 0.5 hrs post dose by Western blot analysis relative to control; type: functional; conditions: Calu-6, po
[37] = biological target: Cyclin-dependent kinase 5 (Homo sapiens) (UniProt Q00535); experiment: Binding affinity to recombinant human GST-tagged inactive CDK5
Cyclin-dependent kinase 5 (Homo sapiens), sequence (Q00535 whole entry, looked up): as the sequence (Q00535 whole entry) above

[38] = biological target: Dual specificity mitogen-activated protein kinase kinase 1 (Homo sapiens) (UniProt Q02750); experiment: Inhibition of recombinant full length His-tagged human MEK1 expressed in baculovirus expression system at 1 uM by GST-tagged full length human inactive ERK2 coupled cascade assay relative to control
[39] = biological target: Mitogen-activated protein kinase kinase kinase 8 (Homo sapiens) (UniProt P41279); experiment: Inhibition of recombinant GST-tagged human COT catalytic domain expressed in baculovirus expression system at 1 uM by GST-tagged full length human inactive ERK2 expressed in baculovirus expression system coupled cascade assay relative to control
[40] = biological target: Mitogen-activated protein kinase 15 (Homo sapiens) (UniProt Q8TD08); experiment: Binding affinity to recombinant human N-terminal 4xFLAG-tagged/C-terminal His8-fused ERK7 N-terminal domain (M1 to R354 residues) expressed in Sf9 insect cells
[41] = biological target: T4, Cyclin-dependent kinase 5/CDK5 activator 1; experiment: Inhibition of recombinant full length human His-tagged CDK5/p35 expressed in baculovirus expression system
[42] = Fraction unbound in rat plasma; type: ADME, cell-free
[43] = biological target: Cyclin-dependent kinase 2/cyclin E1 (Homo sapiens, UniProt P24941); experiment: Inhibition of human full length C-terminal His6-tagged Cdk2/human full length N-terminal GST-tagged Cyclin E expressed in baculovirus infected Sf21 insect cells after 1 hr by electromobility shift assay
[44] = biological target: CDK2/Cyclin O (Homo sapiens) (UniProt P24941+P22674); experiment: Inhibition of recombinant human full length N-terminal GST-tagged CDK2/Cyclin O expressed in baculovirus infected Sf9 cells at 1 uM relative to control
[45] = Fraction unbound in mouse plasma; type: ADME, cell-free
[46] = Oral bioavailability in dog; type: ADME, organism-based, Canis lupus familiaris; conditions: in vivo
[47] = biological target: Cyclin-dependent kinase 2/cyclin E1 (Homo sapiens) (UniProt P24864+P24941); experiment: Inhibition of human full length C-terminal His6-tagged Cdk2/human full length N-terminal GST-tagged Cyclin E expressed in baculovirus infected Sf21 insect cells at 1 uM after 1 hr by electromobility shift assay relative to control
[48] = biological target: NUAK family SNF1-like kinase 1 (Homo sapiens, UniProt O60285); experiment: Inhibition of recombinant full length human His-tagged ARK5 expressed in baculovirus expression system
A-375 = experiment: Antiproliferative activity at human A375 cells expressing BRAF V600E mutant assessed as growth inhibition; type: functional
[49] = biological target: Mitogen-activated protein kinase 3 (Homo sapiens) (UniProt P27361); experiment: Inhibition of GST-tagged recombinant human full length ERK1 expressed in Escherichia coli at 1 uM relative to control
[50] = Half life in po dosed dog; type: ADME, organism-based, Canis lupus familiaris; conditions: in vivo
[51] = biological target: Dual specificity mitogen-activated protein kinase kinase 1 (Homo sapiens) (UniProt Q02750); experiment: Inhibition of recombinant full length His-tagged human MEK1 expressed in baculovirus expression system at 1 uM relative to control

Compound: COC[C@H]1Cn2cc(-c3nc(Nc4ccnn4C)ncc3C)cc2C(=O)N1Cc1cccc(C)n1
- IC50 [1]: 30 nM
- IC50 [2]: 0.6 nM
- IC50 [3]: < 0.3 nM
- IC50 [4]: 60 nM

Compound: COC[C@H]1Cn2cc(-c3nc(Nc4ccnn4C)ncc3C)nc2C(=O)N1Cc1ccc(F)c(F)c1 [TIZATERKIB]
- IC50 [1]: 1.7 nM
- Activity [10]: 91%
- inhibition [11]: -2.2%
- Ka [6]: 8.9 ×10⁻⁵ /M/s
- inhibition [12]: 101%
- Vd [13]: 1.5 L/kg
- bioavailability [14]: 30%
- Ka [15]: 6.5 ×10⁻⁵ /M/s
- inhibition [16]: -3.5%
- fraction unbound [17]: 0.44
- inhibition [18]: 87%
- inhibition [19]: 81%
- inhibition [20]: 5.8%
- Activity (A549): 28%
- inhibition [21]: inactive
- inhibition in vivo at 15 mg/kg (Calu-6 [22]): 93%
- Activity (Calu-6 [23]): 49%
- T1/2 [7]: 4.62 h
- inhibition in vivo at 25 mg/kg (Mus musculus [24]): 100%
- Vd [25]: 1.2 L/kg
- IC50 [2]: 0.66 nM
- inhibition [26]: 99%
- inhibition [27]: 80%
- Kdiss [28]: 4.5 ×10⁻⁵ /s
- inhibition [29]: 101%
- GI50 (Calu-6 [30]): 200 nM
- half-life [31]: 2.3 h
- IC50 [3]: < 0.3 nM
- fraction unbound [32]: 0.06 to 0.27
- IC50 [33]: 300 nM
- T1/2 [8]: 3.23 h
- Kd [34]: 0.0501 nM
- Kd [35]: 0.1 nM
- inhibition in vivo at 25 mg/kg (Mus musculus [36]): 100%
- Activity [37]: 1.9 µM
- inhibition [38]: 104%
- inhibition [39]: 103%
- Activity [40]: 0.03 µM
- IC50 [41]: 300 nM
- fraction unbound [42]: 0.21
- IC50 [43]: 1000 nM
- Kdiss [9]: 6 ×10⁻⁵ /s
- inhibition [44]: 95%
- fraction unbound [45]: 0.12
- bioavailability [46]: 100%
- IC50 [4]: 5.7 nM
- inhibition [47]: 89%
- IC50 [48]: 400 nM
- GI50 (A-375): 60 nM
- inhibition [49]: 105%
- half-life [50]: 5 h
- IC50 [5]: 11000 nM
- inhibition [51]: -2.5%

Continued, in another order:

- IC50 [1]: 4.7 nM
- IC50 [2]: 0.34 nM
- IC50 [3]: < 0.3 nM
- IC50 [4]: 12 nM
Compound: Cc1cnc(Nc2ccnn2C)nc1-c1cn2c(n1)C(=O)N(Cc1cccc(Cl)c1)CC2

- IC50 [1]: 9.1 nM
- IC50 [2]: 2.6 nM
- IC50 [3]: 0.83 nM
- IC50 [4]: 31 nM
Compound: Cc1cnc(Nc2ccnn2C)nc1-c1cn2c(n1)C(=O)N(Cc1ccc(F)c(F)c1)CC2
- IC50 [5]: 23000 nM

- Ka [6]: 9.8 ×10⁻⁶ /M/s
- T1/2 [7]: 0.0133 h
- T1/2 [8]: 0.02 h
- Kdiss [9]: 9.9 ×10⁻³ /s
Compound: Cn1nccc1Nc1nccc(-c2ccn([C@H](CO)c3ccc(Cl)c(F)c3)c(=O)c2)n1

- IC50 [2]: 0.35 nM
- IC50 [3]: < 0.3 nM
- IC50 [4]: 20 nM
Compound: Cc1cnc(Nc2ccnn2C)nc1-c1cc2n(c1)CCN(Cc1ccc(F)c(F)c1)C2=O
